Values quoted from earlier work as cited in patent publication US8911774B2, “Topical composition for anti-aging skin treatment using dual DNA repair mechanism and method of use” (Cellhealth Technologies Ltd., priority 2009, dated 2014).

Assays:
[1] = tested on: tyrosinase
[2] = tested on: 8-OHdG
[3] = tested on: p53
[4] = tested on: melanin synthesis; conditions: at a concentration of 0.1%
[5] = tested on: skin damage; conditions: shown clinically

CC1(C)C=Cc2c(ccc3c2OC[C@@H](c2ccc(O)cc2O)C3)O1 [Glabridin]
tyrosinase-inhibition activity relative to Kojic acid [1]: 25 times | tyrosinase-inhibition activity relative to ascorbic acid [1]: 75 times

CCCCCCCCC(CCCCCC)C(=O)OC[C@H](OC(=O)C(CCCCCC)CCCCCCCC)[C@H]1OC(=O)C(OC(=O)C(CCCCCC)CCCCCCCC)=C1OC(=O)C(CCCCCC)CCCCCCCC (stereo partly drawn) [tetrahexyldecyl ascorbate]
8-OHdG induced by UV-A radiation [2]: decreases | p53 expression induced by UV-B radiation [3]: decreases | reduction of melanin synthesis [4]: 80%

Tocotrienol
strength and effectiveness at repairing skin damage relative to regular Vitamin E [5]: 40-50 times
